8 compounds from PubChem BioAssay (NCI) can be followed below.

Several values for one entry are separate records, joined by “and”; a condition that tells them apart may be missing. Identical values can stand only once.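 Interpolation was linear, between the two tested concentrations surrounding the appropriate level; five concentrations were tested over 48 hours in 96-well plates. GI50 is the concentration that inhibits growth by half. Definition used: TGI = concentration required for complete inhibition of growth.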 A value given as a limit tells only on which side of the number the result lay.

Test systems include HT29 colon; T-47D breast; MDA-MB-435; UACC-257 melanoma; A498 renal; ACHN renal; U251 CNS; NCI/ADR-RES ovarian; HCT-15 colon; CCRF-CEM leukemia.
Test in all cases: NCI anticancer screen, dose series, 48 h

In the case of `COc1c(OC(C)C)cc2cc(O)c(C(=O)NC3Cc4ccc(c(Cl)n4)O[C@@H]4C=C5C#C/C(=C\C#CC6OC56C4OC4CC(C)(O)C(O)C(C)O4)C(OC4CC(O)C(N(C)C)C(C)O4)COC3=O)cc2c1OC` (stereo not given in full), the GI50 is > 36.3 µM and 0.714 µg/mL in the assay with HT29 colon; 21.9 µM and 1.08 µg/mL in the assay on UACC-257 melanoma; 0.168 µg/mL with A498 renal; 9.33 µM and 0.303 µg/mL in the assay on ACHN renal; 5.61 µM and 0.596 µg/mL with U251 CNS; > 36.3 µM and 9.57 µg/mL in the assay on HCT-15 colon. In the assay on CCRF-CEM leukemia, the GI50 is 4.34 µM and 0.0317 µg/mL. The TGI with HT29 colon was > 36.3 µM and 37.5 µg/mL; in the assay with T-47D breast, more than 36.3 µM; in the assay with MDA-MB-435, more than 36.3 µM; in the assay on UACC-257 melanoma, > 36.3 µM and 37.5 µg/mL; in the assay with A498 renal it was > 36.3 µM and 8.7 µg/mL; with ACHN renal, > 36.3 µM and 5.69 µg/mL. In addition, the TGI was > 36.3 µM and 9.98 µg/mL with U251 CNS; more than 36.3 µM in the assay with NCI/ADR-RES ovarian; > 36.3 µM and 37.5 µg/mL in the assay with HCT-15 colon; > 36.3 µM and 5.33 µg/mL with CCRF-CEM leukemia.

With `CCN(Cc1ccc(F)cc1)c1ccc(CO)c(C(F)(F)F)c1`, the GI50 in the assay with HT29 colon is 14.3 µM; in the assay with T-47D breast, 1.84 µM; in the assay on MDA-MB-435 it was 16 µM; with UACC-257 melanoma, 1.76 µM; with A498 renal it was 0.122 µM; in the assay on ACHN renal, 14.6 µM. In addition, the GI50 was 4.1 µM in the assay on U251 CNS, 13.7 µM in the assay on NCI/ADR-RES ovarian, 14.4 µM in the assay with HCT-15 colon and 14.7 µM in the assay on CCRF-CEM leukemia. Moreover, the TGI was found to be 31.2 µM in the assay with HT29 colon; 10.4 µM with T-47D breast; 29.4 µM in the assay on MDA-MB-435; 7.01 µM with UACC-257 melanoma; 0.287 µM with A498 renal; 27.8 µM with ACHN renal. The TGI in the assay on U251 CNS amounted to 18.4 µM; in the assay with NCI/ADR-RES ovarian, 28 µM; in the assay with HCT-15 colon, 29.4 µM; with CCRF-CEM leukemia, 43.7 µM.

Turning to `COc1c(CC=C(C)C)c(O)c(C(CC(C)C)c2c(O)c(CC=C(C)C)c(O)c(C(C)=O)c2O)c(O)c1C(C)=O` (stereo not given), the TGI with HT29 colon came out at 8.63 µM; in the assay on T-47D breast, 16 µM; with MDA-MB-435, 6.47 µM; in the assay on UACC-257 melanoma it was 5.11 µM; with A498 renal, 1.24 µM; with ACHN renal it was 10.9 µM. The TGI in the assay on U251 CNS amounted to 11.2 µM; in the assay on NCI/ADR-RES ovarian it was 10.2 µM; with HCT-15 colon it was 2.62 µM; in the assay on CCRF-CEM leukemia it was 1.65 µM.

In the case of `O=S(=O)(NCCCNc1cc(-c2cn(-c3ccccc3)nc2-c2cccc(O)c2)ccn1)c1ccc(F)cc1`, the GI50 is 2.26 µM in the assay with HT29 colon; 2.89 µM in the assay with T-47D breast; 3.36 µM in the assay on MDA-MB-435; 2.92 µM with UACC-257 melanoma; 2.49 µM in the assay with A498 renal; 3.52 µM with ACHN renal. The GI50 in the assay with U251 CNS is 2.97 µM; with NCI/ADR-RES ovarian it was 3.24 µM; with HCT-15 colon it was 2.45 µM; with CCRF-CEM leukemia, 2.45 µM. Moreover, the TGI in the assay on HT29 colon stood at 6.5 µM; in the assay with T-47D breast it was 8.76 µM; with MDA-MB-435, 12.9 µM; with UACC-257 melanoma, 7.26 µM; with A498 renal, 9.81 µM; in the assay on ACHN renal it was 33.8 µM. Moreover, the TGI amounted to 10.3 µM in the assay with U251 CNS, 22.4 µM with NCI/ADR-RES ovarian, 7.9 µM in the assay on HCT-15 colon and 9.41 µM with CCRF-CEM leukemia.

On to `O=S(=O)(NCCCNc1nccc(-c2c(-c3ccc(F)cc3)nc3sccn23)n1)c1ccc(F)cc1`, for which the GI50 with HT29 colon is 3.52 µM; with T-47D breast it was 2.28 µM; in the assay on MDA-MB-435 it was 3.69 µM; with UACC-257 melanoma it was 21.9 µM; in the assay on A498 renal, 2.25 µM; with ACHN renal, 4.61 µM. In addition, the GI50 in the assay on U251 CNS was 8.87 µM; with NCI/ADR-RES ovarian, 6.6 µM; in the assay on HCT-15 colon it was 3.92 µM; with CCRF-CEM leukemia, 3.91 µM. For the same compound, the TGI in the assay with HT29 colon was 21.4 µM; in the assay with T-47D breast, 13.2 µM; with MDA-MB-435, more than 100 µM; with UACC-257 melanoma, more than 100 µM; in the assay on A498 renal, 45.6 µM; with ACHN renal it was more than 100 µM. In addition, the TGI in the assay with U251 CNS, in the assay with NCI/ADR-RES ovarian, with HCT-15 colon and with CCRF-CEM leukemia was more than 100 µM each time.

For `CC(C)N(Cc1ccc(F)cc1)c1ccc(CO)c(Cl)c1`, the GI50 in the assay on HT29 colon was 1.81 µM; in the assay with T-47D breast, 0.0645 µM; in the assay on MDA-MB-435 it was 15 µM; with UACC-257 melanoma, 0.0837 µM; in the assay on A498 renal, 0.0225 µM; in the assay with ACHN renal, 8.08 µM. In addition, the GI50 in the assay on U251 CNS was 0.37 µM; with NCI/ADR-RES ovarian, 10.4 µM; in the assay with HCT-15 colon, 5.23 µM; in the assay on CCRF-CEM leukemia, 12.1 µM. Also, the TGI in the assay with HT29 colon came out at 14.1 µM; in the assay with T-47D breast, 0.515 µM; with MDA-MB-435 it was 29.5 µM; in the assay with UACC-257 melanoma it was 0.316 µM; with A498 renal, 0.134 µM; in the assay with ACHN renal it was 20.9 µM. Moreover, the TGI in the assay on U251 CNS was determined as 14.4 µM; in the assay with NCI/ADR-RES ovarian, 23.8 µM; in the assay with HCT-15 colon it was 20.7 µM; with CCRF-CEM leukemia, 33.4 µM.

`NCc1ccc(-c2nc(-c3ccc(Cl)c(O)c3)c(-c3ccncc3)[nH]2)cc1`: the GI50 is more than 25 µM in the assay with HT29 colon; more than 25 µM in the assay on T-47D breast; 5.18 µM in the assay with MDA-MB-435; 3.63 µM with UACC-257 melanoma; more than 25 µM with A498 renal; more than 25 µM with ACHN renal. Also, the GI50 with U251 CNS, in the assay on NCI/ADR-RES ovarian, in the assay on HCT-15 colon and in the assay on CCRF-CEM leukemia was more than 25 µM each time. Besides, the TGI in the assay with HT29 colon is more than 25 µM; with T-47D breast, more than 25 µM; in the assay with MDA-MB-435, more than 25 µM; in the assay on UACC-257 melanoma, 17.4 µM; in the assay on A498 renal, more than 25 µM; in the assay on ACHN renal, more than 25 µM. The TGI in the assay on U251 CNS, with NCI/ADR-RES ovarian, with HCT-15 colon and with CCRF-CEM leukemia was more than 25 µM each time.

For the compound `Cc1ccc(Cl)cc1-n1c(C)nc2c(cnn2-c2ccnc3c(C(F)(F)F)cccc23)c1=O`, the GI50 in the assay with HT29 colon, in the assay with T-47D breast, with MDA-MB-435, with UACC-257 melanoma, in the assay with ACHN renal and with U251 CNS was more than 100 µM throughout. Besides, the GI50 in the assay on NCI/ADR-RES ovarian, with HCT-15 colon and in the assay on CCRF-CEM leukemia was more than 100 µM throughout. The TGI with HT29 colon, in the assay on T-47D breast, with MDA-MB-435, in the assay on UACC-257 melanoma, with ACHN renal and in the assay with U251 CNS was more than 100 µM throughout. Besides, the TGI in the assay with NCI/ADR-RES ovarian, in the assay with HCT-15 colon and in the assay on CCRF-CEM leukemia was more than 100 µM each time.
